One data set has as its system red blood cells. The data set is described as follows: Toxicity and oxidative stress in red blood cells.
The subject of another data set is wild-type (WT) animals. The data set is described as follows: Novel object recognition task in wild-type control rats. In kind it is in vivo, rat. The procedure: The experiments were performed in Fmr1-^Δexon 8 rats on a Sprague-Dawley background (Horizon Discovery, formerly SAGE Labs, USA), proposed as a genetic model of ASD and rat model of FXS (Golden et al., 2019; Schiavi et al., 2022); the corresponding wild-type (WT) animals were used as controls.
(§1) We performed three experiments testing Fmr1-^Δexon 8 rats and WT controls in the novel object recognition task using three different treatment schedules for psilocybin administration: • 1. Experiment 1: a single dose of either 1 (Hibicke et al., 2020) or 3 mg/kg psilocybin given intraperitoneally (i.p.) eight days before behavioral testing (FIG. 8A); • 2. Experiment 2: repeated microdoses of psilocybin (0.1 mg/kg) given i.p. three times every other day, with behavioral testing starting five days after the last administration (FIG. 8B); • 3. Experiment 3: repeated microdoses of psilocybin (0.1 or 0.3 mg/kg) (Higgins et al., 2021) given orally (p.o.) three times every other day, for two consecutive weeks, with behavioral testing starting five days after the last administration (FIG. 8C).
We have recently shown that Fmr1-^Δexon 8 rats show impaired novel object recognition memory at adolescence (Schiavi et al., 2022). […] On the training trial, each rat was individually placed into an open-field arena containing two identical objects (A1 and A2), equidistant from each other, and allowed to explore the objects for 5 min. Thirty minutes later, one copy of the familiar object (A3) and a new object (B) were placed in the same location as during the training trial. Each rat was placed in the apparatus for 5 minutes, and the time spent exploring each object was recorded. The discrimination index was calculated as the difference in time exploring the novel and the familiar objects, expressed as the percentage ratio of the total time spent exploring both objects (Schiavi et al., 2022).
Data are expressed as mean±SEM and were analyzed by two-way ANOVA, with genotype (WT or Fmr1-^Δexon 8) and treatment (psilocybin or vehicle) as factors. Tukey's post hoc test was used for individual group comparisons. The accepted value for significance was set at p<0.05. Data were analyzed using GraphPad Prism 8 software.

The next data set has as its system VPA-exposed rats. The data set is described as follows: Elevated plus-maze test in rats prenatally exposed to valproic acid. In kind it is in vivo, rat. To be noted: offspring of VPA-treated pregnant rats. As for the experimental part: Female Wistar rats (Charles River), weighing 250±15 g, were mated overnight. The morning when spermatozoa were found was designated as gestational day 1 (GD1). Pregnant rats were singly housed in Macrolon cages (401×26w x 20h cm), under controlled conditions (temperature 20-21° C., 55-65% relative humidity and 12/12h light cycle with lights on at 07:00 a.m.). Food and water were available ad libitum. On gestational day 12.5, females received a single intraperitoneal injection of either sodium valproate (VPA) or saline (SAL). […] Newborn litters found up to 5.00 p.m. were considered to be born on that day (Postnatal day (PND) 0). On PND 1, the litters were culled to eight animals (six males and two females). On PND 21, the pups were weaned and housed in groups of three. […]
The apparatus comprised two open and two closed arms (501×10×40 h cm) that extended from a common central platform (101×10 w cm). […] Each session was recorded with a camera positioned above the apparatus for subsequent behavioral analysis performed using the Observer 3.0 software (Noldus Information Technology). The following parameters were analyzed: […]
Data are expressed as mean±SEM. To assess the effects of prenatal VPA exposure and psilocybin on behavioral parameters, data were analyzed by two-way ANOVA, with prenatal treatment and postnatal treatment as factors. […]

A short description of data set [1]: Observation of discomfort/intoxication after repeated oral microdosing. In kind it is in vivo, rat. To be noted: Experiment 3: 0.1 or 0.3 mg/kg p.o. repeated; immediately and days after administration. The procedure: as §1
To increase the translational value of our findings, we finally decided to assess the effects of repeated oral administration of 0.1 and 0.3 mg/kg psilocybin microdoses, for two weeks every other day, in our Fmr1-^Δexon 8 rats. The animals were tested five days after the last treatment, to prevent any hallucinogenic effect of the drug at the time of behavioral performance.

The conditions of data set [2]: 0.1 mg/kg, rats; Higgins et al., 2021; cited from earlier work.

Molecules are shown by their SMILES. “Also recorded” adds a separate entry of the source.

On to `CN(C)CCc1c[nH]c2cccc(O)c12` [psilocin], for which the “toxicity in red blood cells” value in the data set on red blood cells is given as “non-toxic”.

On to `CN(C)CCc1c[nH]c2cccc(OP(=O)(O)O)c12` [psilocybin], for which the “cognitive performance of WT animals (% discrimination index)” value is “did not affect the performance of WT animals” with wild-type (WT) animals (Experiment 1: single dose 1 mg/kg i.p. eight days before testing, WT rats) and “poorer cognitive performance; also recorded: detrimental effect” with wild-type (WT) animals (Experiment 1: single dose 3 mg/kg i.p. eight days before testing, WT rats vs WT vehicle, p<0.001, 3 mg/kg). The “cognitive performance of WT animals” value with wild-type (WT) animals (Experiment 2: 0.1 mg/kg i.p. three times every other day, WT rats) is on record as “without affecting the performance of WT animals”; in the data set on wild-type (WT) animals (Experiment 3: 0.1 or 0.3 mg/kg p.o. repeated for two weeks, WT rats), “without affecting the performance of WT animals”. Moreover, the “performance in wild-type (WT) control animals” value in the data set on wild-type (WT) animals (repeated microdoses (schedule not given at the place)) is recorded as “without affecting the performance”. Besides, in the data set on VPA-exposed rats, the “safety of treatment in the VPA model” value is “safe”. For the same compound, the “signs of discomfort/intoxication in the animals” value in data set [1] is on record as “did not induce any sign of discomfort/intoxication”. Moreover, the “side effects on motor activity or stereotypies” value in data set [2] was “devoid of side effects on motor activity or stereotypies”. Besides, the “toxicity in red blood cells” value in the data set with red blood cells was “non-toxic”.

The record behind these values is US20240424005A1, “DIAGNOSING, MONITORING AND TREATING NEUROLOGICAL DISEASE WITH PS[…] DERIVATIVES AND mRNA MEASUREMENTS” (NOVA MENTIS LIFE SCIENCE CORP., priority 2021, published 2024).
